Results: patent US7378387B2, “Method of suppressing immune response by reducing intracellular content of glutathione in macrophages and monocytes” (Ajinomoto Co., Inc., priority 1997, dated 2008)

Columns and labels:
[1] = system: dextran sulfate-induced inflammatory bowel disease; experiment: Dextran sulfate-induced inflammatory bowel disease in γc knock out mice (Example 14); type: in vivo
Method: To 3-week-old γc knock out mice with +/− genotypes were administered 20 μg[…] of (NAC-OMe)2 three times a week for 2 weeks. On day 16, the free drinking of 1% dextran sulfate water was started. […] The γc knock out mice and their wild-type male mice (+/Y- and −/Y) and female mice (+/+, +/− and −/−) were caused to freely drink water containing 1% dextran sulfate as a inflammatory bowel disease model.

IL-6 [2] = experiment: IL-6 in macrophage culture supernatant, advanced tumor-bearing mice (Example 4); type: in vivo, CDF1 mice; conditions: oral 1 mg/0.5 ml/h for 10 days, COLON 26 mice; control mice 5,200 pg/ml
Method: (§1) A stimulator was added to 1×10^6 MΦ, and the incubation was conducted at 37° C. for 2 days in a CO2 incubator. After centrifugation, the culture supernatant was collected.
(§2) The amount of IL-6 was determined using IL-6 dependent mouse hybridoma MH60 cells (J. Eur. Immunol., vol. 18, p. 951, 1988). One hundred microliters of the culture supernatant were added to 100 μl of the MH60 cell suspension adjusted to 1×10^5 cells/ml in a 10% FCS-containing RPMI medium, and the mixed solution was incubated at 37° C. for 2 days in a CO2 incubator. Subsequently, 10 μl of MTT (supplied by Sigma Co.) solution adjusted to a concentration of 5 mg/ml in the same medium were added thereto, and the reaction was conducted at 37° C. for 5 hours. After the completion of the reaction, the centrifugation was conducted. The supernatant (160 μl) was removed, and 100 μl of a mixture of hydrochloric acid and propanol were added to the residue. The suspension was conducted using a pipetman to dissolve the cells. Immediately after the dissolution, an absorbance of 570 nm was measured with an immunometer (supplied by Bio-Rad).
The COLON 26 transplantable tumor was implanted subcutaneously in the back portion of CDF1 mice at a density of 5×10^5 cells/mouse. […] Glutathione ethyl ester was orally administered to the mice every day in a dosage of 1 mg/0.5 ml/h. This oral administration was continued for 10 days. […]

IL-6 [3] = experiment: IL-6 in culture supernatant of macrophage-like cells from rheumatoid arthritis patients (Example 17); type: cell-based, human; conditions: added at 2 mM
Method: as §1, §2
By the same manner as in Example 3, macrophage-like cells were collected from tissues of rheumatoid arthritis patients, and were then suspended and adjusted in a phenol red-free RPMI 1640 culture medium supplemented with 10% fetal calf serum to 3×10^6 cells/ml. […]

IL-6 [4] = experiment: IL-6 in culture supernatant of macrophages of NOD mice (Example 22); type: in vivo; conditions: oral 1 mg/0.5 ml/h/day on alternate days, five times, age 4 weeks; control group 3800 pg/ml
Method: as §2
Through a probe, glutathione ethyl ester was orally given at 1 mg/0.5 ml/h/day to the NOD mice of age 4 weeks on alternate days, in total five times. By the same method as in Example 3, intraperitoneal cells were collected from the mice to sample intraperitoneal macrophages, which were then suspended and adjusted in a phenol red-free RPMI 1640 culture medium supplemented with 10% fetal calf serum to 3×10^6 cells/ml. […]

[5] = system: reduced glutathione in intraperitoneal macrophages; experiment: Reduced glutathione in intraperitoneal macrophages of NOD mice by ACAS (Example 22); type: in vivo; conditions: doses given per substance
[6] = system: reductive glutathione in peritoneal macrophages; experiment: Reductive glutathione content of peritoneal macrophages by ACAS, advanced tumor-bearing mice (Example 4); type: in vivo, CDF1 mice; conditions: oral 1 mg/0.5 ml/h every day for 10 days from day 21 after COLON 26 implantation; control physiological saline
Method: Oxidative and reductive macrophages collected from peritoneal cavities of advanced tumor-bearing cachectic mice (COLON 26) and normal mice were determined. The COLON 26 transplantable tumor well known to induce a cancer cachexia was implanted subcutaneously in the back portion of CDF1 mice at a density of 5×10^5 cells/mouse. On day 21 after the tumor implantation, the cachectic condition was provided. Five milliliters of a physiological saline solution were intraperitoneally injected into the mice which became resistant to a therapeutic treatment. Peritoneal macrophages were collected, and suspended in a phenol red-free RPMI 1640 medium containing 10% fetal calf serum to a density of 3×10^5 cells/ml. One hundred microliters of the suspension were charged in a Lab-Tek Chamber Slide (#136439, supplied by Nunc), and incubated in 5% CO2 at 37° C. for 3 hours. After the nonadherent cells were removed, 200 μl of the above-mentioned medium free from serum were added thereto, and monochlorobimane (MCB) was added thereto in an amount of 10 μM. The reaction was conducted for 30 minutes, and the image analysis was conducted on the basis of the UV absorption using an ACAS device (supplied by Meridien).
The COLON 26 transplantable tumor was implanted subcutaneously in the back portion of CDF1 mice at a density of 5×10^5 cells/mouse. […]

IL-6 [7] = experiment: IL-6 production of MΦ after NAC drinking and/or IL-2 administration (Example 8); type: in vivo, DBA/2 female mice; conditions: stimulated with LPS and IFNγ; control mice 1,240 pg/ml
Method: The amount of IL-6 was determined using IL-6 dependent mouse hybridoma MH60 cells (J. Eur. Immunol., vol. 18, p. 951, 1988). One hundred microliters of the culture supernatant were added to 100 μl of the MH60 cell suspension adjusted to 1×10^5 cells/ml in a 10% FCS-containing RPMI medium, and the mixed solution was incubated at 37° C. for 2 days in a CO2 incubator. Subsequently, 10 μl of MTT (supplied by Sigma Co.) solution adjusted to a concentration of 5 mg/ml in the same medium were added thereto, and the reaction was conducted at 37° C. for 5 hours. […] Immediately after the dissolution, an absorbance of 570 nm was measured with an immunometer (supplied by Bio-Rad).
Two groups, namely, a group of 8-week-old DBA/2 female mice which were caused to freely drink city water as in Example 6, and a group of the same female mice which were caused to freely drink city water containing 1 mg/ml of NAC, were prepared. […] On day 14, the IL-12 production from MΦ was measured in the same manner as in Example 6.
Peritoneal cells were harvested from four groups of the mice, and stimulated with LPS and IFNγ. Then, the NO production, the IL-6 production and the IL-12 production were measured.

[8] = system: reductive glutathione in MΦ; experiment: GSH content in MΦ by ACAS after NAC drinking and/or IL-2 administration (Example 8); type: in vivo, DBA/2 female mice; conditions: NAC 1 mg/ml in city water; IL-2 intraperitoneally twice a day every two days for two weeks; day 14
Method: Three-hundred microliters of a cell suspension adjusted concentration of 3×10^5 cells/ml in an RPMI 1640 medium (phenol red-free) were charged into a chambered coverglass (#136439, supplied by Nunc), and incubated at 37° C. for 2 hours using a CO2 incubator. The culture solution was washed with the medium, and 300 μl of monochlorobimane (supplied by Molecular Plobe) adjusted to 10 μM in the same medium were added thereto. The mixture was charged into a CO2 incubator of 37° C., and the reaction was conducted for 30 minutes. The fluorescent intensity was measured with ACAS. In ACAS, a UV laser was used.
Two groups, namely, a group of 8-week-old DBA/2 female mice which were caused to freely drink city water as in Example 6, and a group of the same female mice which were caused to freely drink city water containing 1 mg/ml of NAC, were prepared. Further, the two groups of the-above-mentioned mice to which human recombinant IL-2 in an amount of 2 pg/0.5 ml/h was intraperitoneally administered twice a day, every two days for two weeks were provided.

SMILES: COC(=O)[C@H](CSSC[C@H](NC(C)=O)C(=O)OC)NC(C)=O [(NAC-OMe)2, N,N′-diacetylcystine dimethyl ester]
- occurrence rate of the inflammatory bowel disease ([1]; +/+ mice, non-administration 80%): 60%
- occurrence rate of the inflammatory bowel disease, Day 30 ([1]; +/− mice, 20 μg/h three times a week for 2 weeks, 1% dextran sulfate water from day 16, non-administration 100%): 16.6%
- survival rate ([1]; +/− mice, 20 μg/h three times a week for 2 weeks, 1% dextran sulfate water, non-administration 57%): 100%

SMILES: CCOC(=O)CNC(=O)[C@H](CS)NC(=O)CC[C@H](N)C(=O)O [GSH-OEt, glutathione monoethyl ester]
- amount of IL-6 in macrophage culture supernatant (IL-6 [2]): 642 pg/mL
- IL-6 in the culture supernatant of the macrophages (IL-6 [3]): prominently decreased
- IL-6 in the culture supernatant of the macrophages (IL-6 [4]): 460 pg/mL
- relative ratio of oxidative macrophages compared with saline-dosed NOD mice ([5]; intraperitoneal dosing on alternate days from age 3-4 weeks): same action is also observed
- relative ratio of oxidative macrophages compared with saline-dosed NOD mice ([5]; oral dosing on alternate days from age 3-4 weeks): same action is also observed
- relative ratio of oxidative macrophages compared with saline-dosed NOD mice ([5]; oral dosing on alternate days from age 3-4 weeks, listed as glutathione ethyl ester): decreased
- amount of oxidative macrophage (reductive glutathione content decreased) in comparison with control mice [6]: relatively decreased

SMILES: CC(=O)N[C@@H](CS)C(=O)O [NAC, N-acetylcysteine, reference compound]
- amount of IL-6 in the macrophage culture supernatant (IL-6 [7]): 320 pg/mL
- content of reductive glutathione in MΦ (ACAS) [8]: markedly increased
